# Assay results: patent US4895853A, “Antitumor alkaloids” (priority 1986, dated 1990)
# Like-named read-outs stand apart in the source and are kept apart here.
# System: P388 mouse leukemia cells
# Test: P388 mouse leukemia cell assay (growth inhibition, 48 h)
# Assay type: cell-based
# Details: read-out: P388 IC50
# Protocol: The following assay method was utilized to illustrate the antitumor effectiveness of the compositions of Formulae I-V corresponding to manzamines B-D of the examples.
# P388 mouse leukemia cells are grown in Dulbecco MEM medium with 10% horse serum, 4 mM glutamine, and 20 ug/ml gentamycin (Biologos, Inc.). Cells are incubated in 10% CO2 and subcultured 2 times per week.
# 1. Add compound to each well of a 24-well plate or tube and allow solvent to evaporate to dryness.
# 2. Add 2 ml (1.2×10^5) cells to each well or tube and mix.
# 3. Incubate in 10% CO2 at 37° for 48 hours.
# 4. Read platees with an inverted microscope, scoring activity from 1+ to 4+ as follows: ND (not detectable), >90%; 1+, 75-90%; 2+, 50-74%; 3+, 25-49%; 4+, <25% of control growth. Cell counts are performed on each tube and results are reported as percent of control. Alternatively, scoring may be expressed as IC50 which represents the minimum concentration of the composition required to inhibit 50% of the cell growth on the plate. […]
"IC50 (P388 mouse leukemia cells, 48 hours at 37°, 10% CO2) [µg/mL]",Structure (SMILES),"IC50 (Mus musculus, P388, 48 h) [µg/mL]"
,"OC12C=C(C3NCCc4c3[nH]c3ccccc43)C3CCN(CCCC/C=C\CC1)CC31CC3/C=C\CCCCN3C21 (stereo not shown) [Manzamine D, manzamine D]",0.5
,"C1=C\CCC23CN4CCCC/C=C\CCC5(OC5C(c5nccc6c5[nH]c5ccccc56)C2CC4)C3NCCCC/1 (stereo not shown) [Manzamine B, manzamine B]",6
3,"C1=C\CCCCN(CCc2nccc3c2[nH]c2ccccc23)CCCC/1 [Manzamine C, manzamine C]",
,"OC12C=C(c3nccc4c3[nH]c3ccccc34)C3CCN(CCCC/C=C\CC1)CC31CC3/C=C\CCCCN3C21 (stereo not shown) [Manzamine A, manzamine A, reference compound]",0.075
